Experimental data as given in article PMC7730438, “Generation of KS-58 as the first K-Ras(G12D)-inhibitory peptide presenting anti-cancer activity in vivo” (Scientific Reports, 2020).
“And” between values parts separate entries of the source, which are not always exact repeats. Equal values may be shown once. Each block holds one compound with its values, some of them ahead of it. Starred links: 1 amine or outer side, 2 acyl side, 3 side chain; linkers in the order of their positions; H or OH if unused. Positions of bridges follow the written chain, without caps; N, C: chain ends. Non-standard residues stand in square brackets, D forms with d. Residues, ends and D or L forms follow the SMILES beside them. Groups on a side chain read outwards from the residue. *: point of attachment. Biotin = O=C1N[C@H]2[C@H](CS[C@H]2CCCCC(=O)*)N1; Phe(4-F) = N[C@@H](Cc1ccc(F)cc1)C(=O)O; X1 = CCCCCCC[C@H](N[*:1])C(=O)[*:2]; Nle = CCCC[C@H](N)C(=O)O; X2 = C(C[*:1])C[*:2]; Ahx = NCCCCCC(=O)O; βAla = NCCC(=O)O

Columns and labels:
A427 cells = test: Cell proliferation assay (CellTiter-Glo, 72 h); format: cell-based, human; conditions: A427 (G12D), peptide 30 µM, n = 4, ± SEM
Procedure: A427 (ATCC HTB-53), A549 (ATCC CCL-185), H1975 (ATCC CRL-5908), PANC-1 (ATCC CRL-1469), MIA PaCa-2 (ATCC CRL-1420), and Capan-1 (ATCC HTB-79) cells were purchased from ATCC, and each cell was cultured in medium supplemented with 10% fetal bovine serum (FBS), according to the protocol recommended by the manufacture.
The effect of peptides on cell proliferation of A427, A549, H1975, PANC-1, MIA PaCa-2, and Capan-1 cells was determined by 72 h exposure to peptides. Cells were seeded at 1000 cells/well in 96-well tissue culture plates in each growth media and allowed to adhere overnight on day 0. Peptides were solved in DMSO and then diluted with each growth media for a constant final DMSO concentration of 0.5%. Media in the wells were removed and replaced with diluted peptide solutions, and cells were incubated for 3 days. During the incubation, medium containing the peptides was replaced every day. Relative cell numbers were estimated using CellTiter-Glo assay kit (G7570, Promega, WI, USA) according to the manufacturer’s instructions. Luminescence was detected using SpectraMax i3x (MOLECULAR DEVICES, CA, USA). Cell proliferation rate (%) was calculated based on cell numbers at day 0 as 0% and at day 3 without peptide treatment as 100%.

[1] = molecular target: T1, K-Ras(G12D)^GDP–SOS1 interaction (Homo sapiens, UniProt P01116, G12D); test: Intracellular PPI inhibition assay using NanoBiT in HEK293T cells; format: cell-based; conditions: peptide 30 µM, n = 4
T1 construct: host or cells: HEK293T
Procedure: (§1) Intracellular protein–protein interaction (PPI) inhibition assays were carried out using the NanoBiT system (Promega). Three kinds of plasmids with CMV promoters, which encodes human K-Ras(G12D) fusing SmBiT to the N-terminus, encodes human SOS1 fusing LgBiT to the C-terminus, and encodes human BRAF fusing LgBiT to the C-terminus, were prepared by Promega. Each combination of plasmids was transfected to HEK293T cells by FuGENE HD Reagent (E2312, […]). After 30 h incubation at 37 °C under 5% CO2, the cells were recovered, and seeded to 96-well tissue culture white plate with 10% FBS containing DMEM, and incubated overnight. Peptides were added to the plate and incubated for another 2 h. Nano-Glo (Promega, N2011) was directly added to the plate, and luminescence was immediately monitored. Intracellular K-Ras(G12D)^GDP–SOS1 and K-Ras(G12D)^GTP–BRAF interactions (%) were calculated based on no peptide treatment as 100% and only transfection of plasmid encoding LgBiT fusion protein as 0%.

[2] = molecular target: T2, K-Ras(G12D)^GTP–BRAF interaction (Homo sapiens, UniProt P01116, G12D); test: as above; format: cell-based; conditions: peptide 30 µM, n = 4
T2 construct: host or cells: HEK293T
Procedure: as §1

[3] = molecular target: T3, recombinant K-Ras(G12D) protein (Homo sapiens, UniProt P01116, G12D); test: Competition binding assay (ELISA) against Biotin-KRpep-2d; conditions: competitive inhibition of Biotin-KRpep-2d (100 nM) binding; n = 4, ± SEM
T3 construct: purchased Abcam ab268712
Procedure: (§2) Ras protein was directly coated to wells of Nunc MaxiSorp microplate in PBS containing 0.01 mM GDP and 10 mM MgCl2 overnight at 4 °C. The wells were blocked in PBS containing 0.1% bovine serum albumin (BSA) for 0.5 h at 25 °C.
For competition binding assays, Ras protein (250 ng/mL) was coated to wells of Nunc MaxiSorp 96-well clear plate (439454) as described above. […] The amounts of HRP in the wells were measured by absorbance at 450 nm.

[4] = molecular target: T3, recombinant K-Ras(G12D) protein; test: Cell-free ELISA binding of biotin-labeled peptides; conditions: Fig. 4A
Procedure: as §2
For binding assays of biotin-labeled peptides, Ras protein (25 μg/mL) was coated to wells of Nunc MaxiSorp 96-well clear plate (439,454) as described above. After washing the wells three times using PBS containing 0.1% Tween20 (PBST), biotin-labeled peptides in PBS containing 0.025% BSA, 0.01 mM GDP, and 10 mM MgCl2 were added to the wells. After 0.5 h incubation at 25 °C, the wells were washed with PBST three times. Bound biotin-labeled peptides were detected using horseradish peroxidase (HRP)-conjugated streptavidin (SA) (ab7403, Abcam) and 1-Step Ultra TMB-ELISA Substrate Solution (34028, Thermo Fisher Scientific). The amounts of HRP in the wells were measured by absorbance to 450 nm.

[5] = molecular target: SmBiT-fused K-Ras(G12D) (human) (UniProt P01116); test: split reporter (BiFC, NanoBiT); NanoBiT in transfected HEK293T cells; peptides (30 µM) added to the cells for 2 h; remaining K-Ras(G12D)-SOS1 or K-Ras(G12D)-BRAF luminescence in % of no peptide
[6] = molecular target: Recombinant human K-Ras(G12D) (human) (UniProt P01116)
[7] = test system: PANC-1 xenografts (pancreas weight); test: Combination administration test of KS-58 and gemcitabine; format: in vivo, mice; conditions: gemcitabine alone, 40 mg/kg intraperitoneally once every 4 days for 4 weeks
Procedure: To establish orthotropic xenograft tumor models, 2.5 × 10^6 cells/50 µL of PANC-1 cells were injected into the pancreas of BALB/cAJcl-nu/nu male mice (8 weeks old; CLEA Japan, Inc.). KS-58 was dissolved in DMSO and then tenfold diluted by saline. The peptide solution was then injected intravenously to the mice bearing tumors once every 2 days for 4 weeks (40 mg/kg, n = 7). Organ weights of the pancreas, liver, and kidney were measured. In combination administration test, gemcitabine hydrochloride solution (Nipponkayaku) was tenfold diluted by saline and then injected intraperitoneally to the mice bearing tumors once every 4 days for 4 weeks (40 mg/kg, n = 10), and peptide solution prepared as a same manner described above was injected intravenously to the mice bearing tumors once every 2 days for 4 weeks (10, 20, or 40 mg/kg, n = 10). Organ weights of the pancreas were measured.

Intracellular K-Ras(G12D)^GDP–SOS1 interaction (luminescence, %) [1]: weaker inhibition activity than KS-58 | Intracellular K-Ras(G12D)^GTP–BRAF interaction (luminescence, %) [2]: weaker inhibition activity than KS-58
Compound: c(βAla-Pro-Nle-Cys-Anon-Ser-4fF-Asp-Pro-Trp-^DCys) [KS-58(monocyclic)]
Cell proliferation (%) (A427 cells): 87.1 ± 1.4%

K-Ras(G12D)-binding activity, fold-value compared to the parental KRpep-2d set as 1.0 [3]: about 30 Fold
Compound: c[Arg-Arg-Arg-Arg-c(Dap-Pro-Nle-Trp-Anon-Dap-Cha-Asp-Pro-Trp-Asp)-Arg-Arg-Arg-Arg] [KS-36]
Cell proliferation (%) (A427 cells): 33.1% and 33.1 ± 9.6%

Binding activity to K-Ras(G12D) protein in ELISA (in words) [4]: peptide concentration-dependent binding
Compound: CCCCCCC[C@@H]1NC(=O)[C@@H]2CSCCCSC[C@@H](NC(=O)[C@H](Cc3c[nH]c4ccccc34)NC(=O)[C@H](CCCCNC(=O)CCCCCNC(=O)CCCC[C@@H]3SC[C@@H]4NC(=O)N[C@@H]43)NC(=O)[C@H](CC(=O)O)NC(=O)[C@H](Cc3ccc(F)cc3)NC(=O)[C@H](CO)NC1=O)C(=O)NCCC(=O)N1CCC[C@H]1C(=O)N[C@@H](CCCC)C(=O)N2 [Biotin-KS-58, c[βAla-Pro-Nle-c(Cys-Anon-Ser-4fF-Asp-Lys(εN-biotin)-Trp-^DCys)]] (cyclo([βAla]P[Nle]C[X1]S[Phe(4-F)]DK([Ahx-Biotin])W[dC]); linker 4-11 via X2)

percent of K-Ras(G12D)-BRAF NanoBiT luminescence left at 30 µM peptide [5]: 53.8% | percent of K-Ras(G12D)-SOS1 NanoBiT luminescence left at 30 µM peptide [5]: 35.5% | cell proliferation (%) of A427 cells (K-Ras G12D) at 30 µM peptide, 72 h, CellTiter-Glo [6]: 21.1% | cell proliferation (%) of PANC-1 cells (K-Ras G12D) at 30 µM peptide, 72 h, CellTiter-Glo [6]: 50.1% | pERK (%) in A427 cells (K-Ras G12D) at 30 µM peptide [6]: 26% | pERK (%) in PANC-1 cells (K-Ras G12D) at 30 µM peptide [6]: 57.6%
Compound: KS-58 (peptide)

Compound: Nc1ccn([C@@H]2O[C@H](CO)[C@@H](O)C2(F)F)c(=O)n1 [Gemcitabine, gemcitabine]
cell growth of PANC-1 (pancreas weight; Sham = 0%, vehicle = 100%) [7]: 66%
